Among the data in PubChem BioAssay (NCI) are GI50 and TGI values, retold here.

“And” between values parts separate entries of the source, which are not always exact repeats. Equal entries are not always repeated.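 Tested at 5 concentrations; 48 h exposure; 96-well plates; endpoints linearly interpolated, else capped at highest concentration. GI50 is the concentration that inhibits growth by half. Definition used: TGI = concentration required for complete inhibition of growth.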

One experiment deals with SF-295 CNS. Kind of experiment: DTP human tumour cell line panel, 48 h.
For the compound `COc1cc(/C=N/NC(=O)c2ccc(C(F)(F)F)nc2Nc2ccc(Cl)cc2C)ccc1O`, the GI50 is 1.16 µM and the TGI was determined as 3.23 µM.
Taken in the same sequence, the figures for `O=C1CC(c2ccc3c(c2)OCO3)Nc2ccccc21` (stereo not given) were 10.1 µM and 24.1 µM.
Compound `O=C1/C(=C/c2ccccc2)CN(C(=O)C(Cl)(Cl)Cl)C/C1=C\c1ccccc1` registered a TGI of 3.24 µM.
Take `O=C1C(Cl)=C(Nc2cccc(Cl)c2)C(=O)N1Cc1ccc(Cl)cc1Cl`: the GI50 was 4.22 µM and the TGI was 33.4 µM.
With `COC1CCC(N2C(=O)CNc3ncc(-c4ccc(C(C)(C)O)nc4)nc32)CC1` (stereo not given), the GI50 is 0.511 µM and 0.157 µM; the TGI was 4.75 µM and 3.09 µM.
On to `COC1CCC2C(NS(=O)(=O)c3ccc(C)cc3)CCCC2O1` (stereo not given) (tested in a mixture with another compound), for which the TGI was found to be 21.4 µM.
The same measure, in the same setting: then `NNC(=O)Nc1cccnc1`, with > 100 µM.
As for `Cc1cc(I)cc(CN(C)CCCCN2CCCCC2)c1O`, the GI50 is 3.05 µM and the TGI worked out at 7.62 µM.
For `CC1=C(C(=O)NCc2ccccc2)C(/C=C/c2ccccc2)C(C(=O)NCc2ccccc2)=C(C)N1`, the TGI is > 100 µM.
On the same count and under the same terms, then `O=S1(=O)c2ccccc2NC(c2ccc3ccccc3c2)CC1c1ccccc1F` (stereo not given), with > 100 µM; and `C=C1C(=O)C23CC1CCC2C12CO[C@@H]4OCC(C)(CC[C@@H]1OC3=O)C42` (stereo not given in full), with 30.9 µM; and `CN/N=C(/Cc1occc(=O)c1O)C(=O)Nc1ccccc1C`, with > 100 µM.

For the next experiment, the system named is SK-MEL-28 melanoma. The experiment is described as follows: DTP human tumour cell line panel, 48 h.
`COc1cc(/C=N/NC(=O)c2ccc(C(F)(F)F)nc2Nc2ccc(Cl)cc2C)ccc1O`: the GI50 is 2.74 µM and the TGI is 14.3 µM.
Taken in the same sequence, the figures for `O=C1CC(c2ccc3c(c2)OCO3)Nc2ccccc21` (stereo not given) were 15.1 µM and 32.7 µM.
With `O=C1/C(=C/c2ccccc2)CN(C(=O)C(Cl)(Cl)Cl)C/C1=C\c1ccccc1`, the TGI is 3.33 µM.
Consider `O=C1C(Cl)=C(Nc2cccc(Cl)c2)C(=O)N1Cc1ccc(Cl)cc1Cl`, for which the GI50 is 1.67 µM and the TGI came to 14.2 µM.
As for `COC1CCC(N2C(=O)CNc3ncc(-c4ccc(C(C)(C)O)nc4)nc32)CC1` (stereo not given), the GI50 was 0.378 µM and 0.155 µM; the TGI is 4.1 µM and 10.4 µM.
As to `COC1CCC2C(NS(=O)(=O)c3ccc(C)cc3)CCCC2O1` (stereo not given) (tested in a mixture with another compound), the TGI was > 34.5 µM.
In the case of `NNC(=O)Nc1cccnc1`, the TGI was > 100 µM.
Regarding `Cc1cc(I)cc(CN(C)CCCCN2CCCCC2)c1O`, the GI50 was 4.21 µM and the TGI was 15.8 µM.
Turning to `CC1=C(C(=O)NCc2ccccc2)C(/C=C/c2ccccc2)C(C(=O)NCc2ccccc2)=C(C)N1`, the TGI was > 100 µM.
As for `O=S1(=O)c2ccccc2NC(c2ccc3ccccc3c2)CC1c1ccccc1F` (stereo not given), the TGI was > 100 µM.
In the case of `C=C1C(=O)C23CC1CCC2C12CO[C@@H]4OCC(C)(CC[C@@H]1OC3=O)C42` (stereo not given in full), the TGI stood at 4.41 µM.
Still for that read-out and setting: under `CN/N=C(/Cc1occc(=O)c1O)C(=O)Nc1ccccc1C` stands > 100 µM.

The test system of another experiment is SK-MEL-5 melanoma. The experiment is described as follows: DTP human tumour cell line panel, 48 h.
For the compound `COc1cc(/C=N/NC(=O)c2ccc(C(F)(F)F)nc2Nc2ccc(Cl)cc2C)ccc1O`, the GI50 is 1.41 µM and the TGI is 3.28 µM.
With `O=C1CC(c2ccc3c(c2)OCO3)Nc2ccccc21` (stereo not given), the GI50 was 12.6 µM and the TGI turned out to be 25.8 µM.
Regarding `O=C1/C(=C/c2ccccc2)CN(C(=O)C(Cl)(Cl)Cl)C/C1=C\c1ccccc1`, the TGI was 2.36 µM.
Turning to `O=C1C(Cl)=C(Nc2cccc(Cl)c2)C(=O)N1Cc1ccc(Cl)cc1Cl`, the 50% growth inhibitory concentration (GI50) was 0.321 µM and the TGI is 4.5 µM.
Take `COC1CCC(N2C(=O)CNc3ncc(-c4ccc(C(C)(C)O)nc4)nc32)CC1` (stereo not given): the concentration for 50% growth inhibition (GI50) is 0.766 µM and 0.149 µM; the TGI was 2.79 µM and 1.46 µM.
Regarding `COC1CCC2C(NS(=O)(=O)c3ccc(C)cc3)CCCC2O1` (stereo not given) (tested in a mixture with another compound), the TGI worked out at 19.4 µM.
`NNC(=O)Nc1cccnc1`: the TGI is > 100 µM.
`Cc1cc(I)cc(CN(C)CCCCN2CCCCC2)c1O`: the GI50 was 3.33 µM and the TGI is 10.7 µM.
On to `CC1=C(C(=O)NCc2ccccc2)C(/C=C/c2ccccc2)C(C(=O)NCc2ccccc2)=C(C)N1`, for which the TGI was > 100 µM.
On the same count and under the same terms, under `O=S1(=O)c2ccccc2NC(c2ccc3ccccc3c2)CC1c1ccccc1F` (stereo not given) stands > 100 µM.
The compound `C=C1C(=O)C23CC1CCC2C12CO[C@@H]4OCC(C)(CC[C@@H]1OC3=O)C42` (stereo not given in full) came in with a TGI of 28.3 µM.
The same measure, in the same setting: under `CN/N=C(/Cc1occc(=O)c1O)C(=O)Nc1ccccc1C` stands > 100 µM.

In another experiment the test system is SW-620 colon. The experiment is described as follows: DTP human tumour cell line panel, 48 h.
On to `COc1cc(/C=N/NC(=O)c2ccc(C(F)(F)F)nc2Nc2ccc(Cl)cc2C)ccc1O`, for which the GI50 is 2.77 µM and the TGI is 12.1 µM.
In the case of `O=C1CC(c2ccc3c(c2)OCO3)Nc2ccccc21` (stereo not given), the GI50 was 6.61 µM and the TGI turned out to be 23.1 µM.
Regarding `O=C1/C(=C/c2ccccc2)CN(C(=O)C(Cl)(Cl)Cl)C/C1=C\c1ccccc1`, the TGI worked out at 1.82 µM.
Take `O=C1C(Cl)=C(Nc2cccc(Cl)c2)C(=O)N1Cc1ccc(Cl)cc1Cl`: the GI50 is 0.115 µM and the TGI came to 18.9 µM.
For the compound `COC1CCC(N2C(=O)CNc3ncc(-c4ccc(C(C)(C)O)nc4)nc32)CC1` (stereo not given), the GI50 was 1.78 µM and 0.935 µM; the TGI was > 37.5 µM.
`COC1CCC2C(NS(=O)(=O)c3ccc(C)cc3)CCCC2O1` (stereo not given) (tested in a mixture with another compound): the TGI was > 34.5 µM.
As to `NNC(=O)Nc1cccnc1`, the TGI was > 100 µM.
Consider `Cc1cc(I)cc(CN(C)CCCCN2CCCCC2)c1O`, for which the GI50 is 13.3 µM and the TGI turned out to be 27.5 µM.
Regarding `CC1=C(C(=O)NCc2ccccc2)C(/C=C/c2ccccc2)C(C(=O)NCc2ccccc2)=C(C)N1`, the concentration for total growth inhibition (TGI) is > 100 µM.
Same read-out and setting: then `O=S1(=O)c2ccccc2NC(c2ccc3ccccc3c2)CC1c1ccccc1F` (stereo not given), with > 100 µM; and `C=C1C(=O)C23CC1CCC2C12CO[C@@H]4OCC(C)(CC[C@@H]1OC3=O)C42` (stereo not given in full), with 7.04 µM.
On the same count and under the same terms, then `CN/N=C(/Cc1occc(=O)c1O)C(=O)Nc1ccccc1C`, with > 100 µM.

In another experiment the test system is UACC-62 melanoma. The experiment is described as follows: DTP human tumour cell line panel, 48 h.
As to `COc1cc(/C=N/NC(=O)c2ccc(C(F)(F)F)nc2Nc2ccc(Cl)cc2C)ccc1O`, the GI50 is 1.88 µM and the TGI is 5.01 µM.
Take `O=C1CC(c2ccc3c(c2)OCO3)Nc2ccccc21` (stereo not given): the GI50 was 11.7 µM and the concentration for total growth inhibition (TGI) came to 30.3 µM.
In turn, `O=C1/C(=C/c2ccccc2)CN(C(=O)C(Cl)(Cl)Cl)C/C1=C\c1ccccc1` displayed a TGI of 3.43 µM.
With `O=C1C(Cl)=C(Nc2cccc(Cl)c2)C(=O)N1Cc1ccc(Cl)cc1Cl`, the GI50 is 0.446 µM and the TGI was determined as 4.83 µM.
On to `COC1CCC(N2C(=O)CNc3ncc(-c4ccc(C(C)(C)O)nc4)nc32)CC1` (stereo not given), for which the GI50 was 0.237 µM and 0.111 µM; the TGI was 2.08 µM and 1.26 µM.
Take `COC1CCC2C(NS(=O)(=O)c3ccc(C)cc3)CCCC2O1` (stereo not given) (tested in a mixture with another compound): the TGI is > 34.5 µM.
On the same count and under the same terms, under `NNC(=O)Nc1cccnc1` stands > 100 µM.
For the compound `Cc1cc(I)cc(CN(C)CCCCN2CCCCC2)c1O`, the GI50 was 2.62 µM and the TGI is 6.98 µM.
`CC1=C(C(=O)NCc2ccccc2)C(/C=C/c2ccccc2)C(C(=O)NCc2ccccc2)=C(C)N1`: the TGI was > 100 µM.
`O=S1(=O)c2ccccc2NC(c2ccc3ccccc3c2)CC1c1ccccc1F` (stereo not given): the TGI was > 100 µM.
Compound `C=C1C(=O)C23CC1CCC2C12CO[C@@H]4OCC(C)(CC[C@@H]1OC3=O)C42` (stereo not given in full) had a TGI of 17.3 µM.
For the compound `CN/N=C(/Cc1occc(=O)c1O)C(=O)Nc1ccccc1C`, the TGI is > 100 µM.
